# Reference: patent US20080064871A1, “Production Method of Nitrogen-Containing Fused Ring Compounds” (Japan Tobacco Inc., priority 2006, published 2008)
# Target: T1, human URAT1 (Homo sapiens, UniProt Q96S37)
# T1 construct: Human URAT1 full length cDNA was subcloned to expression vector pcDNA3.1; expressed in transfected cells; host or cells: HEK293 cells (pcDNA3.1, geneticin-selected)
# T1 sequence (Q96S37 1-553): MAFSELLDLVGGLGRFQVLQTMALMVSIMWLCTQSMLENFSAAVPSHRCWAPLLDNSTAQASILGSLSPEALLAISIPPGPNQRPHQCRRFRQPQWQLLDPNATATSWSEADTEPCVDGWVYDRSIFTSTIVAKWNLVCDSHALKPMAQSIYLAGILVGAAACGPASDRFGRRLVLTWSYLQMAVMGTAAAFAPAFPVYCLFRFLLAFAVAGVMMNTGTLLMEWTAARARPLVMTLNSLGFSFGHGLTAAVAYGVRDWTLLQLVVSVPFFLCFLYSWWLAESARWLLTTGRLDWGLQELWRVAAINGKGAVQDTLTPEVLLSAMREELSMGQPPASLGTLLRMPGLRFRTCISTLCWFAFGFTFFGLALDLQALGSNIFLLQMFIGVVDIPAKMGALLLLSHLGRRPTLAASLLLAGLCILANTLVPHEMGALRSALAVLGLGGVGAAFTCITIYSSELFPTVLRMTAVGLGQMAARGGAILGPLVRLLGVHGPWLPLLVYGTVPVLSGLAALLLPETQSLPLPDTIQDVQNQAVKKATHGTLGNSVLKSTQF
# Experiment: Uric acid transport inhibitory test using human URAT1-expressing cells
# Assay type: cell-based
# Conditions: human URAT1 expressing HEK293 cells, uptake of 14C-labeled uric acid for 5 min, room temperature; read-out: hURAT1 (IC50, concentration necessary for inhibiting the uric acid transport rate by 50%)
# Excerpt: Reference Experimental Example 1 Uric Acid Transport Inhibitory Test Using Human Urat1-Expressing Cells
# Human URAT1 full length cDNA was subcloned to expression vector pcDNA3.1 and human URAT1 gene was transfected into human embryonic kidney derived cell line (HEK293 cells) by liposome method using Lipofectamine2000. Simultaneously, HEK293 cells transfected with expression vector pcDNA3.1 alone (hereinafter mock cells) were also produced. HEK293 cells expressing human URAT1 gene or mock cells were selected with geneticin resistance as an index. The functional expression of human URAT1 gene was confirmed by a method similar to the following method, using transport of uric acid labeled with ^14C into the cells as an index.
# Human URAT1 expressing HEK293 cells or mock cells were cultured in Dulbecco's modified Eagle's MEM medium (high glucose) containing 10% fetal bovine serum, 0.5 mg/mL geneticin sulfate, 100 units/mL penicillin and 100 μg/mL streptomycin under the conditions of 37° C. and 5% CO2 in an incubator. The cells were plated in a 96 well plate (poly-D-Lysine coated) at 1×10^5 cells/well and the following uric acid transport inhibitory test was performed 24 hr later. This test was performed at room temperature.
# After the medium was removed by aspiration from each well, the cells were washed once with Hank's Balanced Salt Solution (HBSS) and preincubated with HBSS ([…]) for 5 min. HBSS was aspirated and an assay buffer (wherein NaCl in the above-mentioned HBSS had been substituted with Na-gluconate) containing various concentrations of the Example compound and a radioactive ligand (uric acid labeled with 14C; final concentration […]) was added to each well at […] and an uptake reaction was carried out for 5 min. After the reaction, the cells were washed twice with ice-cold HBSS ([…]), and Microscin ti TM 20 (PerkinElmer) was added at […]. The cells were lysed by stirring and the radioactivity of each well was measured in a liquid scintillation counter (TOP COUNT, Packard).
# The uric acid transport rate (%) of the Example compound at each concentration was calculated relative to the radioactivity (difference in radioactivity between human URAT1 expressing HEK293 cells and mock cells without addition of Example compound (DMSO addition)) showing URAT1 specific uric acid transport as 100%, and the concentration (IC50) of the Example compound necessary for inhibiting the uric acid transport rate by 50% was determined. In Table-Table, “+++” means IC50 value of less than 100 nM, “++” means IC50 value of 100 nM to less than 1000 nM, and “+” means IC50 value of 1000 nM to less than 3000 nM.
row,IC50,Structure (SMILES)
1,1000 to 3000 nM,"O=C(c1cc(Cl)c(O)c(Cl)c1)N1c2ccccc2Oc2ccccc21 [Example 64, (3,5-dichloro-4-hydroxyphenyl)-phenoxazin-10-ylmethanone]"
2,1000 to 3000 nM,"COc1c(Cl)cc(C(=O)N2CCOc3ccccc32)cc1Cl [Example 86, (3,5-dichloro-4-methoxyphenyl)-(2,3-dihydrobenzo[1,4]oxazin-4-yl)-methanone]"
3,100 to 1000 nM,"O=C(c1ccc(O)c([N+](=O)[O-])c1)N1CCOc2ccccc21 [Example 75, (2,3-dihydrobenzo[1,4]oxazin-4-yl)-(4-hydroxy-3-nitrophenyl)-methanone]"
4,< 100 nM,"Oc1c(Cl)cc(C(=S)N2CCOc3ccccc32)cc1Cl [Example 11, (3,5-dichloro-4-hydroxyphenyl)-(2,3-dihydrobenzo[1,4]oxazin-4-yl)-methanethione]"
5,100 to 1000 nM,"O=C(c1cc(Cl)c(O)c(Cl)c1)N1CCSc2ccccc21 [Example 8, (3,5-dichloro-4-hydroxyphenyl)-(2,3-dihydrobenzo[1,4]thiazin-4-yl)-methanone]"
6,100 to 1000 nM,"O=C(c1cc(Cl)c(O)c(Cl)c1)N1CCOc2c(O)cccc21 [Example 90, (3,5-dichloro-4-hydroxyphenyl)-(8-hydroxy-2,3-dihydrobenzo[1,4]oxazin-4-yl)-methanone]"
7,100 to 1000 nM,"CS(=O)(=O)N1CCN(C(=O)c2cc(Cl)c(O)c(Cl)c2)c2ccccc21 [Example 83, (3,5-dichloro-4-hydroxyphenyl)-(4-methanesulfonyl-3,4-dihydro-2H-quinoxalin-1-yl)-methanone]"
8,< 100 nM,"Cc1ccc2c(c1)N(C(=O)c1cc(Cl)c(O)c(Cl)c1)CCO2 [Example 12, (3,5-dichloro-4-hydroxyphenyl)-(6-methyl-2,3-dihydrobenzo[1,4]oxazin-4-yl)-methanone]"
9,< 100 nM,"Cc1cccc2c1OCCN2C(=O)c1cc(Cl)c(O)c(Cl)c1 [Example 15, (3,5-dichloro-4-hydroxyphenyl)-(8-methyl-2,3-dihydrobenzo[1,4]oxazin-4-yl)-methanone]"
10,100 to 1000 nM,"O=C(c1cc(Cl)c(O)c(Cl)c1)N1CCOc2cc(Cl)ccc21 [Example 52, (7-chloro-2,3-dihydrobenzo[1,4]oxazin-4-yl)-(3,5-dichloro-4-hydroxyphenyl)-methanone]"
11,100 to 1000 nM,"O=C(c1cc(F)c(O)c(F)c1)N1CCOc2ccccc21 [Example 6, (3,5-difluoro-4-hydroxyphenyl)-(2,3-dihydrobenzo[1,4]oxazin-4-yl)-methanone]"
12,< 100 nM,"O=C(c1cc(Cl)c(O)c(Cl)c1)N1CCOc2ccc(F)cc21 [Example 44, (3,5-dichloro-4-hydroxyphenyl)-(6-fluoro-2,3-dihydrobenzo[1,4]oxazin-4-yl)-methanone]"
13,< 100 nM,"O=C(c1cc(Cl)c(O)c(Cl)c1)N1CCOc2cccc(O)c21 [Example 89, (3,5-dichloro-4-hydroxyphenyl)-(5-hydroxy-2,3-dihydrobenzo[1,4]oxazin-4-yl)-methanone]"
14,1000 to 3000 nM,"CC(C)(C)c1ccc2c(c1)N(C(=O)c1cc(Cl)c(O)c(Cl)c1)CCO2 [Example 23, (6-tert-butyl-2,3-dihydrobenzo[1,4]oxazin-4-yl)-(3,5-dichloro-4-hydroxyphenyl)-methanone]"
15,100 to 1000 nM,"Cc1cc(C(=O)N2CCOc3ccccc32)cc(C)c1O [Example 7, (2,3-dihydrobenzo[1,4]oxazin-4-yl)-(4-hydroxy-3,5-dimethylphenyl)-methanone]"
16,1000 to 3000 nM,"COC(=O)c1ccc2c(c1)OCCN2C(=O)c1cc(Cl)c(O)c(Cl)c1 [Example 59, methyl 4-(3,5-dichloro-4-hydroxybenzoyl)-3,4-dihydro-2H-benzo[1,4]oxazine-7-carboxylate]"

row,IC50,Structure (SMILES)
1,< 100 nM,"O=C(c1cc(Cl)c(O)c(Cl)c1)N1CCOc2ccc3ccccc3c21 [Example 16, (3,5-dichloro-4-hydroxyphenyl)-(2,3-dihydronaphtho[2,1-b][1,4]oxazin-1-yl)-methanone]"
2,< 100 nM,"O=C(c1cc(Br)c(O)c(Br)c1)N1CCOc2ccc(Cl)cc21 [Example 82, (6-chloro-2,3-dihydrobenzo[1,4]oxazin-4-yl)-(3,5-dibromo-4-hydroxyphenyl)-methanone]"
3,100 to 1000 nM,"O=C(c1cc(Cl)cc(Cl)c1O)N1CCOc2ccccc21 [Example 38, (3,5-dichloro-2-hydroxyphenyl)-(2,3-dihydrobenzo[1,4]oxazin-4-yl)-methanone]"
4,< 100 nM,"O=C(c1cc(I)c(O)c(I)c1)N1CCOc2ccccc21 [Example 5, (2,3-dihydrobenzo[1,4]oxazin-4-yl)-(4-hydroxy-3,5-diiodophenyl)-methanone]"
5,100 to 1000 nM,"O=C(c1cc(Cl)c(O)c(Cl)c1)N1CCS(=O)(=O)c2ccccc21 [Example 10, (3,5-dichloro-4-hydroxyphenyl)-(1,1-dioxo-2,3-dihydro-1H-1λ^6-benzo[1,4]thiazin-4-yl)-methanone]"
6,1000 to 3000 nM,"Nc1ccc2c(c1)OCCN2C(=O)c1cc(Cl)c(O)c(Cl)c1 [Example 71, (7-amino-2,3-dihydrobenzo[1,4]oxazin-4-yl)-(3,5-dichloro-4-hydroxyphenyl)-methanone]"
7,< 100 nM,"O=C(c1cc(Cl)c(O)c(Cl)c1)N1CCOc2ccc(C(F)(F)F)cc21 [Example 85, (3,5-dichloro-4-hydroxyphenyl)-(6-trifluoromethyl-2,3-dihydrobenzo[1,4]oxazin-4-yl)-methanone]"
8,100 to 1000 nM,"COC(=O)c1ccc2c(c1)N(C(=O)c1cc(Cl)c(O)c(Cl)c1)CCO2 [Example 55, methyl 4-(3,5-dichloro-4-hydroxybenzoyl)-3,4-dihydro-2H-benzo[1,4]oxazine-6-carboxylate]"
9,100 to 1000 nM,"CC(=O)N1CCN(C(=O)c2cc(Cl)c(O)c(Cl)c2)c2ccccc21 [Example 73, 1-[4-(3,5-dichloro-4-hydroxybenzoyl)-3,4-dihydro-2H-quinoxalin-1-yl]-ethanone]"
10,100 to 1000 nM,"O=C(c1cc(Cl)c(O)c(Cl)c1)N1CCOc2cc([N+](=O)[O-])ccc21 [Example 70, (3,5-dichloro-4-hydroxyphenyl)-(7-nitro-2,3-dihydrobenzo[1,4]oxazin-4-yl)-methanone]"
11,100 to 1000 nM,"Cc1cc(C)c2c(c1)N(C(=O)c1cc(Cl)c(O)c(Cl)c1)CCO2 [Example 66, (3,5-dichloro-4-hydroxyphenyl)-(6,8-dimethyl-2,3-dihydrobenzo[1,4]oxazin-4-yl)-methanone]"
12,100 to 1000 nM,"O=C(c1cc(Cl)c(O)c(Cl)c1)N1CCOc2cc(O)ccc21 [Example 20, (3,5-dichloro-4-hydroxyphenyl)-(7-hydroxy-2,3-dihydrobenzo[1,4]oxazin-4-yl)-methanone]"
13,< 100 nM,"O=C(c1ccc(O)c(Br)c1)N1CCOc2ccccc21 [Example 2, (3-bromo-4-hydroxyphenyl)-(2,3-dihydrobenzo[1,4]oxazin-4-yl)-methanone]"
14,1000 to 3000 nM,"CN(C)S(=O)(=O)c1ccc2c(c1)N(C(=O)c1cc(Cl)c(O)c(Cl)c1)CCO2 [Example 35, 4-(3,5-dichloro-4-hydroxybenzoyl)-3,4-dihydro-2H-benzo[1,4]oxazine-6-sulfonic acid dimethylamide]"
15,1000 to 3000 nM,"COC(=O)c1cccc2c1OCCN2C(=O)c1cc(Cl)c(O)c(Cl)c1 [Example 61, methyl 4-(3,5-dichloro-4-hydroxybenzoyl)-3,4-dihydro-2H-benzo[1,4]oxazine-8-carboxylate]"
16,100 to 1000 nM,"COc1cc(C(=O)N2CCOc3ccccc32)cc(Cl)c1O [Example 40, (3-chloro-4-hydroxy-5-methoxyphenyl)-(2,3-dihydrobenzo[1,4]oxazin-4-yl)-methanone]"
